Experiment: potentiometric solubility-pH profile titration (pSol)
Format: physicochemical
Details: FIG. 8
Description: The above described titration e.g. of a weak base B from high to low pH-values is used for potentiometric determination of solubility profiles according to the so-called “pSol method” (see e.g. Avdeef, A., 1998, loc. cit.). However, in pSol titrations the phenomenon of a “perfect” buffer system is not encountered frequently because in order to obtain good titration results it is advisable to use only small amounts of the compound under investigation. This leads to a situation where the whole amount of the compound is dissolved before the maximal effective concentration corresponding to point 2 in FIG. 1 is reached. This is illustrated in FIG. 3, where reduction of the pH-value leads along the solubility profile until reaching the point denoted as 2′ in FIG. 3. […] Therefore, the total concentration of the compound remains constant at a value CT.
Measurements of solubility-pH profiles were carried out on a “pSol” apparatus (see e.g. Avdeef, A., 2001, loc. cit.). The potentiometric solubility measurement with the pSol apparatus takes as input parameters the weighted amount of the said compound, the volume of the solution, the measured pKa and the measured (or calculated) octanol/water partition coefficient, logP. […]

Which “pH at which the precipitation begins” value (total concentration about 58 mg/mL for the titration) does the source give for `COc1ccc2c3c1O[C@H]1[C@@H](O)C=C[C@H]4[C@@H](C2)N(C)CC[C@@]341` [codeine] here?
Its value is “about 7”.

What about the “pH at which the precipitation begins” value (total concentration of about 13 mg/mL for the titration) of the same compound?
The value was “about 8”.

Source: patent US7381265B2, “Method for crystallization of a weakly acidic and/or weakly basic compound” (Hoffmann-La Roche Inc., priority 2005, dated 2008)
